Reference: patent US12490739B2, “Synergistically effective fungicide composition comprising choline phosphonate and at least one additional fungicide” (BELCHIM CROP PROTECTION NV, priority 2019, dated 2025)

Assays:
Assay type in all cases: in vivo
Venturia inaequalis [1] = assay: Example 4 field trials, apple (Malus domestica var. Golden delicious) infected with scab; settings: 250 g a.c./ha
Plasmopara viticola [2] = assay: Example 7 field trial, Vitis vinifera var. Merlot infected with downy mildew, France; settings: 130 g a.c./ha
Venturia inaequalis [3] = assay: Example 5 field trials, apple (Malus domestica var. Golden delicious) infected with scab; settings: 60 g a.c./ha
Uncinula necator = assay: Example 12 field trial, Vitis vinifera var. Carignan infected with powdery mildew, France; settings: 2320 g a.c./ha
Podosphaera leucotricha = assay: Example 13 field trials, apple (Malus domestica var. Gold Rush, var. Morgenduft Dallago) infected with powdery mildew; settings: 2640 g a.c./ha
Sphaerotheca fuliginea = assay: Example 3 field trial, cucumber (Cucumis sativus var. Bosco) infected with powdery mildew, Italy; settings: 2080 g a.c./ha
Plasmopara viticola [4] = assay: Example 1 field trial, Vitis vinifera var. Chardonnay infected with downy mildew, South Africa; settings: 120 g a.c./ha
Peronospora cumensis = assay: Example 2 field trial, cucumber (Cucumis sativus) infected with downy mildew, France; settings: PESSEV, 150 g a.c./ha
[5] = PESINC, location 1 (France), 6 DA-A4, BBCH 72
[6] = PESINC, location 3 (Belgium), 31 DA-A9, BBCH 73
[7] = PESINC, location 3 (Belgium), 80 DA-A9, BBCH 73
[8] = PESINC, 50 bunches, 14 DA-A3, BBCH 77
[9] = PESINC, 50 bunches, 14 DA-A5, BBCH 83
[10] = PESINC, 100 leaves, 14 DA-A3, BBCH 77
[11] = PESSEV, 50 bunches, 14 DA-A3, BBCH 77
[12] = PESSEV, 50 bunches, 14 DA-A5, BBCH 83
[13] = PESSEV, 100 leaves, 14 DA-A3, BBCH 77

## N#Cc1sc2c(=O)c3ccccc3c(=O)c=2sc1C#N [DIT, 5,10-dioxobenzo[g][1,4]benzodithiine-2,3-dicarbonitrile]
Venturia inaequalis [1]; PESINC, location 1 (France), 1 DA-A6, BBCH 74
  DIT f.e. (%): 19.8%
Venturia inaequalis [1]; [5]
  DIT f.e. (%): 38.6%
Venturia inaequalis [1]; PESINC, location 2 (United Kingdom), 5 DA-A8, BBCH 74
  DIT f.e. (%): 59.0%
Venturia inaequalis [1]; [6]
  DIT f.e. (%): 51.8%
Venturia inaequalis [1]; [7]
  DIT f.e. (%): 42.6%
Venturia inaequalis [1]; PESSEV, location 1 (France), 1 DA-A6, BBCH 74
  DIT f.e. (%): 63.0%
Venturia inaequalis [1]; PESSEV, location 1 (France), 6 DA-A4, BBCH 72
  DIT f.e. (%): 75.4%

## O=C(NCc1ncc(C(F)(F)F)cc1Cl)c1c(Cl)cccc1Cl [FLU, 2,6-dichloro-N-[[3-chloro-5-(trifluoromethyl)pyridin-2-yl]methyl]benzamide]
Plasmopara viticola [2]; PESINC, 50 bunches, 0 DA-A3, BBCH 73
  FLU f.e. (%): 84.4%
Plasmopara viticola [2]; PESINC, 50 bunches, 0 DA-A5, BBCH 77
  FLU f.e. (%): 37.5%
Plasmopara viticola [2]; PESINC, 50 bunches, 9 DA-A6, BBCH 83
  FLU f.e. (%): 14.5%
Plasmopara viticola [2]; PESINC, 100 leaves, 0 DA-A3, BBCH 73
  FLU f.e. (%): 62.3%
Plasmopara viticola [2]; PESINC, 100 leaves, 0 DA-A5, BBCH 77
  FLU f.e. (%): 47.8%
Plasmopara viticola [2]; PESINC, 100 leaves, 9 DA-A6, BBCH 83
  FLU f.e. (%): 32.2%
Plasmopara viticola [2]; PESSEV, 50 bunches, 0 DA-A5, BBCH 77
  FLU f.e. (%): 83.6%
Plasmopara viticola [2]; PESSEV, 50 bunches, 9 DA-A6, BBCH 83
  FLU f.e. (%): 46.8%

## Cc1cc(OC(C)C)ccc1C(=O)C(C)(C)NC(=O)c1sccc1C [ISO, N-[1,1-dimethyl-2-(4-isopropoxy-o-tolyl)-2-oxoethyl]-3-methylthiophene-2-carboxamide]
Venturia inaequalis [3]; [5]
  ISO f.e. (%): 13.3%
Venturia inaequalis [3]; PESINC, location 2 (Italy), 4 DA-A11, BBCH 75
  ISO f.e. (%): 4.1%
Venturia inaequalis [3]; PESINC, location 2 (Italy), 6 DA-A9, BBCH 74
  ISO f.e. (%): 12.1%
Venturia inaequalis [3]; PESINC, location 2 (Italy), 6 DA-A13, BBCH 77
  ISO f.e. (%): 5.5%
Venturia inaequalis [3]; PESINC, location 2 (Italy), 7 DA-A6, BBCH 72
  ISO f.e. (%): 16.8%
Venturia inaequalis [3]; [6]
  ISO f.e. (%): 8.7%
Venturia inaequalis [3]; [7]
  ISO f.e. (%): 2.2%
Venturia inaequalis [3]; PESSEV, location 2 (Italy), 4 DA-A11, BBCH 75
  ISO f.e. (%): 22.6%
Venturia inaequalis [3]; PESSEV, location 2 (Italy), 6 DA-A9, BBCH 74
  ISO f.e. (%): 25.3%
Venturia inaequalis [3]; PESSEV, location 2 (Italy), 6 DA-A13, BBCH 77
  ISO f.e. (%): 27.7%
Venturia inaequalis [3]; PESSEV, location 2 (Italy), 7 DA-A6, BBCH 72
  ISO f.e. (%): 32.9%

## S1SSSSSSS1 [S, sulphur]
Uncinula necator; [8]
  S f.e. (%): 5.1%
Uncinula necator; PESINC, 50 bunches, 14 DA-A3, BBCH 77, second listing (r34)
  S f.e. (%): 1.2%
Uncinula necator; [9]
  S f.e. (%): 37.6%
Uncinula necator; PESINC, 50 bunches, 14 DA-A5, BBCH 83, second listing (r36)
  S f.e. (%): 0%
Uncinula necator; [10]
  S f.e. (%): 42.8%
Uncinula necator; PESINC, 100 leaves, 14 DA-A3, BBCH 77, second listing (r32)
  S f.e. (%): 6.3%
Uncinula necator; [11]
  S f.e. (%): 50.8%
Uncinula necator; PESSEV, 50 bunches, 14 DA-A3, BBCH 77, second listing (r28)
  S f.e. (%): 6.0%
Uncinula necator; [12]
  S f.e. (%): 14.2%
Uncinula necator; PESSEV, 50 bunches, 14 DA-A5, BBCH 83, second listing (r30)
  S f.e. (%): 18.9%
Uncinula necator; [13]
  S f.e. (%): 18.7%
Uncinula necator; PESSEV, 100 leaves, 14 DA-A3, BBCH 77, second listing (r26)
  S f.e. (%): 13.9%
Podosphaera leucotricha; PESINC, location 1 (France), 20 shoots, 7 DA-A5, BBCH 71
  S f.e. (%): 80.0%
Podosphaera leucotricha; PESINC, location 1 (France), 100 leaves, 5 DA-A8, BBCH 74
  S f.e. (%): 88.1%
Podosphaera leucotricha; PESINC, location 1 (France), 100 leaves, 6 DA-A6, BBCH 74
  S f.e. (%): 59.1%
Podosphaera leucotricha; PESINC, location 1 (France), 100 leaves, 15 DA-A8, BBCH 76
  S f.e. (%): 80.7%
Podosphaera leucotricha; PESINC, location 2 (Italy), 5 leaves, 5 DA-A6, BBCH 74
  S f.e. (%): 63.9%
Podosphaera leucotricha; PESINC, location 2 (Italy), 40 shoots, 2 DA-A10, BBCH 74
  S f.e. (%): 62.4%
Podosphaera leucotricha; PESINC, location 2 (Italy), 40 shoots, 6 DA-A5, BBCH 71
  S f.e. (%): 57.8%
Podosphaera leucotricha; PESINC, location 2 (Italy), 40 shoots, 6 DA-A11, BBCH 74
  S f.e. (%): 59.4%
Podosphaera leucotricha; PESSEV, location 1 (France), 100 leaves, 6 DA-A6, BBCH 74
  S f.e. (%): 64.1%
Podosphaera leucotricha; PESSEV, location 1 (France), 100 leaves, 15 DA-A8, BBCH 76
  S f.e. (%): 88.2%
Podosphaera leucotricha; PESSEV, location 2 (Italy), 5 leaves, 2 DA-A10, BBCH 74
  S f.e. (%): 82.1%
Podosphaera leucotricha; PESSEV, location 2 (Italy), 5 leaves, 5 DA-A6, BBCH 74
  S f.e. (%): 72.7%
Podosphaera leucotricha; PESSEV, location 2 (Italy), 5 leaves, 6 DA-A11, BBCH 74
  S f.e. (%): 84.4%
Sphaerotheca fuliginea; PESINC curative, 7 DA-A2, BBCH 73
  S f.e. (%): 85.1%
Sphaerotheca fuliginea; PESINC curative, 7 DA-A3, BBCH 76
  S f.e. (%): 87.5%
Sphaerotheca fuliginea; PESINC curative, 7 DA-A4, BBCH 77
  S f.e. (%): 77.5%
Sphaerotheca fuliginea; PESINC curative, 14 DA-A4, BBCH 78
  S f.e. (%): 58.9%
Sphaerotheca fuliginea; PESINC, 7 DA-A2, BBCH 73
  S f.e. (%): 88.1%
Sphaerotheca fuliginea; PESINC, 7 DA-A3, BBCH 76
  S f.e. (%): 95%
Sphaerotheca fuliginea; PESINC, 7 DA-A4, BBCH 77
  S f.e. (%): 85.0%
Sphaerotheca fuliginea; PESINC, 14 DA-A4, BBCH 78
  S f.e. (%): 75.2%
Sphaerotheca fuliginea; PESINC, 21 DA-A4, BBCH 79
  S f.e. (%): 69.7%
Sphaerotheca fuliginea; PESSEV curative, 7 DA-A2, BBCH 73
  S f.e. (%): 93.6%
Sphaerotheca fuliginea; PESSEV curative, 7 DA-A3, BBCH 76
  S f.e. (%): 96%
Sphaerotheca fuliginea; PESSEV curative, 7 DA-A4, BBCH 77
  S f.e. (%): 95%
Sphaerotheca fuliginea; PESSEV curative, 14 DA-A4, BBCH 78
  S f.e. (%): 93.4%
Sphaerotheca fuliginea; PESSEV, 7 DA-A2, BBCH 73
  S f.e. (%): 96.7%
Sphaerotheca fuliginea; PESSEV, 7 DA-A4, BBCH 77
  S f.e. (%): 97.6%
Sphaerotheca fuliginea; PESSEV, 14 DA-A4, BBCH 78
  S f.e. (%): 96.3%
Sphaerotheca fuliginea; PESSEV, 21 DA-A4, BBCH 79
  S f.e. (%): 96.9%

## COC(=O)CC(NC(=O)[C@@H](NC(=O)OC(C)C)C(C)C)c1ccc(Cl)cc1 (stereo partly drawn) [VAL, methyl 3-(4-chlorophenyl)-3-[[(2S)-3-methyl-2-(propan-2-yloxycarbonylamino)butanoyl]amino]propanoate]
Plasmopara viticola [4]; [8]
  VAL f.e. (%): 64.0%
Plasmopara viticola [4]; [9]
  VAL f.e. (%): 53.6%
Plasmopara viticola [4]; [10]
  VAL f.e. (%): 57.6%
Plasmopara viticola [4]; [11]
  VAL f.e. (%): 75.9%
Plasmopara viticola [4]; [12]
  VAL f.e. (%): 73.3%
Plasmopara viticola [4]; [13]
  VAL f.e. (%): 66.9%
Peronospora cumensis; 6 DA-A2, BBCH 19
  VAL f.e. (%): 31.7%
Peronospora cumensis; 7 DA-A1, BBCH 16
  VAL f.e. (%): 43.6%
Peronospora cumensis; 7 DA-A4, BBCH 19
  VAL f.e. (%): 62.1%
Peronospora cumensis; 8 DA-A3, BBCH 19
  VAL f.e. (%): 31.7%
Peronospora cumensis; 14 DA-A4, BBCH 19
  VAL f.e. (%): 27.0%
